{
  "source": "patent US5387670A",
  "about": "“Antibiotic, deoxymulundocandin, a process for its production and its use as medicament” (Hoechst Aktiengesellschaft, priority 1990, dated 1995)",
  "key": {"[1]": {"test_system": "Candida albicans", "assay": "Minimum inhibitory concentration", "type": "cell-based"}, "[2]": {"test_system": "Saccharomycis cerevisiae", "assay": "Minimum inhibitory concentration", "type": "cell-based"}, "[3]": {"test_system": "Aspergillus niger", "assay": "Minimum inhibitory concentration", "type": "cell-based"}, "[4]": {"test_system": "Penicillium italicum", "assay": "Minimum inhibitory concentration", "type": "cell-based"}, "[5]": {"test_system": "Cladosporium species", "assay": "Minimum inhibitory concentration", "type": "cell-based"}, "[6]": {"test_system": "Cercospora beticola 71", "assay": "Minimum inhibitory concentration", "type": "cell-based"}, "[7]": {"test_system": "Botrytis cinerea 47", "assay": "Minimum inhibitory concentration", "type": "cell-based"}, "[8]": {"test_system": "Botrytis cinerea 57", "assay": "Minimum inhibitory concentration", "type": "cell-based"}, "[9]": {"test_system": "Botrytis cinerea 211", "assay": "Minimum inhibitory concentration", "type": "cell-based"}, "[10]": {"test_system": "Botrytis cinerea 212", "assay": "Minimum inhibitory concentration", "type": "cell-based"}, "[11]": {"test_system": "Trichophyton mentagrophytes", "assay": "Minimum inhibitory concentration", "type": "cell-based"}, "[12]": {"test_system": "Microsporum gypseum", "assay": "Minimum inhibitory concentration", "type": "cell-based"}, "[13]": {"test_system": "Microsporum canis", "assay": "Minimum inhibitory concentration", "type": "cell-based"}, "[14]": {"assay": "Solubility (physicochemical properties)", "excerpt": "Physicochemical Properties of the New Antibiotic Deoxymulundocandin"}},
  "note": "Numbered stars: 1 amine (or outer) side, 2 acyl side, 3 side chain; on linkers, the order of the positions; unused ones are H or OH. Bridge positions count the residues as written; N and C are the ends. Square brackets hold non-standard residues; d marks the D form. Peptide text beside a SMILES is read from it. * marks the point of attachment. Orn(4R-OH,5R-OH) = O=C([C@H](C[C@@H](O)[C@@H](O)N[*:3])N[*:1])[*:2]; Pro(3S-OH,4S-Me) = C[C@H]1CN[C@H](C(=O)O)[C@H]1O; hTyr(3R-OH) = N[C@H](C(=O)O)[C@H](O)Cc1ccc(O)cc1; Hyp = O=C(O)[C@@H]1C[C@@H](O)CN1; X1 = CCC(C)CCCCCCCCCCC(=O)*",
  "data": [
    {"smiles": "CCC(C)CCCCCCCCCCC(=O)N[C@H]1C[C@@H](O)[C@@H](O)NC(=O)[C@@H]2[C@@H](O)[C@@H](C)CN2C(=O)[C@H](CO)NC(=O)[C@H]([C@H](O)Cc2ccc(O)cc2)NC(=O)[C@@H]2C[C@@H](O)CN2C(=O)[C@H]([C@@H](C)O)NC1=O", "note": "(stereo partly drawn) [Deoxymulundocandin] (X1-[Orn(4R-OH,5R-OH)]T[Hyp][hTyr(3R-OH)]S[Pro(3S-OH,4S-Me)]; lactam 1-C)", "values": [
      {"measurement": "Minimum Inhibitory Concentration", "setting": "[1]", "result": 1.5, "unit": "micrograms per milliliter"},
      {"measurement": "Minimum Inhibitory Concentration", "setting": "[2]", "result": 3.1, "unit": "micrograms per milliliter"},
      {"measurement": "Minimum Inhibitory Concentration", "setting": "[3]", "result": 3.1, "unit": "micrograms per milliliter"},
      {"measurement": "Minimum Inhibitory Concentration", "setting": "[4]", "result": 25, "unit": "micrograms per milliliter"},
      {"measurement": "Minimum Inhibitory Concentration", "setting": "[5]", "result": 0.75, "unit": "micrograms per milliliter"},
      {"measurement": "Minimum Inhibitory Concentration", "setting": "[6]", "result": 6.25, "unit": "micrograms per milliliter"},
      {"measurement": "Minimum Inhibitory Concentration", "setting": "[7]", "result": 6.25, "unit": "micrograms per milliliter"},
      {"measurement": "Minimum Inhibitory Concentration", "setting": "[8]", "result": 50, "unit": "micrograms per milliliter"},
      {"measurement": "Minimum Inhibitory Concentration", "setting": "[9]", "result": 25, "unit": "micrograms per milliliter"},
      {"measurement": "Minimum Inhibitory Concentration", "setting": "[10]", "result": 25, "unit": "micrograms per milliliter"},
      {"measurement": "Minimum Inhibitory Concentration", "setting": "[11]", "result": "< 0.18", "unit": "micrograms per milliliter"},
      {"measurement": "Minimum Inhibitory Concentration", "setting": "[12]", "result": 0.18, "unit": "micrograms per milliliter"},
      {"measurement": "Minimum Inhibitory Concentration", "setting": "[13]", "result": "< 0.18", "unit": "micrograms per milliliter"},
      {"measurement": "Solubility", "setting": "[14]; in methanol, dimethyl formamide, dimethyl sulfoxide", "result": "Soluble"},
      {"measurement": "Solubility", "setting": "[14]; in water, acetone, acetonitrile, ethyl acetate, carbon tetrachloride, chloroform, benzene, petroleum ether", "result": "sparingly soluble"}
    ]}
  ]
}
